One data set relates to S. aureus ATCC 25923. Kind of data set: MIC, broth dilution, S. aureus. The data set is classed as cell-based. The note with it: Staphylococcus aureus, ATCC25923, mean (n = 3). How it is done: (§1) The susceptibility of bacterial strains S. aureus (ATCC 25923), E. coli (ATCC 25922), and P. aeruginosa (ATCC 27853 or PAO1) to antibiotics and compounds was determined using reported protocols. Additional antimicrobial evaluation against MRSA (ATCC 43300), Klebsiella pneumoniae (ATCC 700603), A. baumannii (ATCC 19606), Candida albicans (ATCC 90028), and Cryptococcus neoformans (ATCC 208821) was undertaken at the Community for Open Antimicrobial Drug Discovery at The University of Queensland (Australia) according to their standard protocols as reported previously. […]
(§2) 2.3. Antimicrobial Assays
(§3) The susceptibility of bacterial strains S. aureus (ATCC 25923), E. coli (ATCC 25922), and P. aeruginosa (ATCC 27853 or PAO1) to antibiotics and compounds was determined in microplates using the standard broth dilution method in accordance with the recommendations of the Comité de l’AntibioGramme de la Société Française de Microbiologie (CA-SFM). Briefly, the minimal inhibitory concentrations (MICs) were determined with an inoculum of 10^5 CFU in 200 µL of Mueller–Hinton broth (MHB) containing two-fold serial dilutions of each drug. The MIC was defined as the lowest […]
(§4) determine all MICs, the measurements were independently repeated in triplicate. Additional antimicrobial evaluation against MRSA (ATCC 43300), Klebsiella pneumoniae (ATCC 700603), A. baumannii (ATCC 19606), Candida albicans (ATCC 90028), and Cryptococcus neoformans (ATCC 208821) was undertaken at the Community for Open Antimicrobial Drug Discovery at The University of Queensland (Australia) according to their standard protocols as reported previously. […]
(§5) For C. neoformans, resazurin was added at 0.006% final concentration to each well and incubated for a further 3 h before MICs were determined by measuring […]
(§6) Colistin and vancomycin were used as positive bacterial inhibitor standards for Gram-negative and Gram-positive bacteria, respectively. Fluconazole was used as a positive fungal inhibitor standard for C. albicans and C. neoformans. The antibiotics were provided in […], with 3 above and 3 below its MIC value, and plated into the first 8 wells of column 23 of the 384-well NBS plates. The quality control (QC) of the assays was determined by the antimicrobial controls and the Z'-factor (using positive and negative controls). Each plate was deemed to fulfil the quality criteria (pass QC) if the Z'- […]
(§7) inhibition at their highest concentration, and no growth inhibition at their lowest concentration.
(§8) 2.4. Determination of the MICs of Antibiotics in the Presence of Synergizing Compounds
Background: Dilution methods test growth across graded concentrations, often in twofold steps.

The subject of another data set is E. coli ATCC 25922. Kind of data set: MIC, broth dilution, E. coli. Type of data set: cell-based, Escherichia coli. The note with it: Escherichia coli, ATCC25922, mean (n = 3). How it is done:
as §1, §2, §3, §4

The subject of data set [1] is P. aeruginosa PAO1. Kind of data set: MIC, broth dilution, P. aeruginosa PAO1. The note with it: Pseudomonas aeruginosa, mean (n = 3). The data set is classed as cell-based. How it is done: as §1, §2, §3, §4, §5, §6, §7, §8
On the set-up of data set [2]: method as in PMID 22070694, PMID 31480231. The settings on record: phase I clinical trials; cited from earlier work.
In a further data set the test system is MRSA ATCC 43300. Kind of data set: MIC, CO-ADD broth microdilution, MRSA. Type of data set: cell-based, methicillin-resistant S. aureus. The note with it: Staphylococcus aureus, read-out: MIC MRSA. The protocol:
as §1, §2
(§9) The susceptibility of bacterial strains S. aureus (ATCC 25923), E. coli (ATCC 25922), and P. […]
baumannii (ATCC 19606), Candida albicans (ATCC 90028), and Cryptococcus neoformans (ATCC 208821) was undertaken at the Community for Open Antimicrobial Drug Discovery at The University of Queensland (Australia) according to their standard protocols as reported previously. For antimicrobial assays, the tested strains were cultured in either Luria broth (LB) (In Vitro Technologies, USB75852), nutrient broth (NB) (Becton Dickson, 234000), or MHB at 37 °C overnight. A sample of culture was then diluted 40-fold in fresh MHB and incubated at 37 °C for 1.5−2 h. The compounds were serially diluted 2-fold across the wells of 96-well plates (Corning 3641, non-binding surface), with compound concentrations ranging from 0.015 to 64 µg/ mL, and plated in duplicate. The resultant mid-log phase cultures were diluted to the final concentration of 1 × 10^6 CFU/mL; then, 50 µL was added to each well of the compound-containing plates, giving a final compound concentration range of 0.008 to 32 µg/mL and a cell density of 5 × 10^5 CFU/mL. All plates were then covered and incubated at 37 °C for 18 h. Resazurin was added at 0.001% final concentration to each well and incubated for 2 h before MICs […]
as §5, §6, §7, §8

Data set [3] concerns P. aeruginosa PAO1. Kind of data set: Nitrocefin hydrolysis assay (outer membrane permeabilization). The data set is classed as cell-based. The note with it: polymyxin B at 98.3 μM ([…]). The protocol:
Nitrocefin assays were conducted using reported protocols (see Supplementary File).
We also examined the ability of 9e to act as membrane disruptor of the Gram-negative bacteria P. aeruginosa PAO1 (Figure 5), using a nitrocefin colorimetric assay. This assay makes use of a chromogenic cephalosporin derivative, which in the presence of an outer membrane disruptor gains entry to the periplasm, where upon the action of β-lactamases leads to substrate hydrolysis with a detectable color change from yellow to red.
Briefly, restoring enhancer concentrations were determined with an inoculum of 5x10^5 CFU in 200 µL of MHB containing two-fold serial dilutions of each derivative in the presence of doxycycline at 4.5 […]
The lowest concentration of the polyamine
These measurements were independently repeated in triplicate.
Outer membrane permeabilization was measured using nitrocefin as a chromogenic substrate of periplasmic β-lactamase. […] Nitrocefin hydrolysis was monitored spectrophotometrically by measuring the increase in absorbance at 490 nm. […]
HEK293 cells were counted manually in a Neubauer hemocytometer and plated at a density of 5,000 cells/well into each well of the 384-well plates containing the 25x (2 µL) concentrated compounds [26,27]. […]
(§10) To measure cytotoxicity, 5 µL (equals 100 µM final) of resazurin was added to each well after incubation and incubated for further 3 h at 37 °C with 5% CO2. After the final incubation, fluorescence intensity […]
reader. […] The concentration-dependent percentage cytotoxicity was fitted to a dose–response function (using Pipeline Pilot) and CC50 values were determined.
Human whole blood was washed three times with three volumes of 0.9% NaCl and then resuspended in the same solution to a concentration of 0.5 x 10^8 cells/mL, as determined by the manual cell count in a Neubauer hemocytometer. […] Hemolysis was determined by measuring the supernatant absorbance at […] (OD405). The absorbance was measured using a Tecan M1000 Pro monochromator plate reader. […]

For another data set, the system named is Staphylococcus aureus. Details: method as in PMID 16589015, PMID 22070694, PMID 22191527. The note with it: cited from earlier work.
Another data set concerns Mycobacterium smegmatis. Details: method as in PMID 16589015, PMID 22070694, PMID 22191527. The settings on record: cited from earlier work.
The subject of the next data set is Escherichia coli. Details: method as in PMID 16589015, PMID 22070694, PMID 22191527. The settings on record: cited from earlier work.
Data set [4] in a line: Cytotoxicity assay, HEK293. Type of data set: cell-based. The settings on record: human; HEK293 cells; mean (n = 2); read-out: Cytotoxicity (IC50), concentration of compound at 50% cytotoxicity. The protocol: Cytotoxicity assays were conducted using reported protocols (see Supplementary File). […]
HEK293 cells were counted manually in a Neubauer hemocytometer and plated at a density of 5,000 cells/well into each well of the 384-well plates containing the 25x (2 µL) concentrated compounds [26,27]. The medium used was Dulbecco's modified Eagle’s medium (DMEM), supplemented with 10% fetal bovine serum (FBS). Cells were incubated together with the compounds for 20 h at 37 °C, 5% CO2.
as §10
reader. CC50 values (concentration at 50% cytotoxicity) were calculated by normalizing the fluorescence readout, with 74 µg/mL tamoxifen as negative control (0%) and normal cell growth as positive control (100%). The concentration-dependent percentage cytotoxicity was fitted to a dose–response function (using Pipeline Pilot) and CC50 values were determined. […]

The test system of a further data set is P. aeruginosa ATCC 27853. Kind of data set: MIC of antibiotic alone, P. aeruginosa ATCC 27853. The data set is classed as cell-based. How it is done:
as §1, §2, §3, §5

The subject of another data set is C. albicans ATCC 90028. Kind of data set: MIC, CO-ADD antifungal assay, C. albicans. The data set is classed as cell-based, Candida albicans. The settings on record: Candida albicans, ATCC90028, mean (n = 2). How it is done: as §1, §2, §9
(§11) baumannii (ATCC 19606), Candida albicans (ATCC 90028), and Cryptococcus neoformans (ATCC 208821) was undertaken at the Community for Open Antimicrobial Drug Discovery at The University of Queensland (Australia) according to their standard protocols as reported previously. […]
(§12) For the antifungal assay, fungi strains were cultured for 3 days on YPD agar at 30 °C. A yeast suspension of 1 × 106 to 5 × 10^6 CFU/mL was prepared from five colonies. These stock suspensions were diluted with yeast nitrogen base (YNB) (Becton Dickinson, 233520) broth to a final concentration of 2.5 × 10^3 CFU/mL. The compounds were serially diluted 2-fold across the wells of 96-well plates (Corning 3641, non-binding surface), with compound concentrations ranging from 0.015 to 64 µg/mL and final volumes of 50 µL, plated in duplicate. Then, 50 µL of the fungi suspension that was previously prepared in YNB broth to the final concentration of 2.5 × 10^3 CFU/mL was added to each well of the compound-containing plates, giving a final compound concentration range of 0.008 to 32 µg/mL. Plates were covered and incubated at 35 °C for 36 h without shaking. C. albicans MICs were determined by measuring the absorbance at OD530. For C. neoformans, resazurin was added at 0.006% final concentration to each well and incubated for a further 3 h before MICs were determined by measuring […]
as §6, §7, §8

Data set [5] relates to C. neoformans ATCC 208821. Kind of data set: MIC, CO-ADD antifungal assay, C. neoformans. The data set is classed as cell-based, Cryptococcus neoformans. The settings on record: Cryptococcus neoformans, ATCC208821, mean (n = 2). How it is done: as §1, §2, §9, §11, §12, §6, §7, §8

≈ marks a conversion by molar mass, not a printed value. Where “and” joins values, the source holds several entries; their conditions need not be identical. Equal entries are not always repeated.

A word on the MIC: it is the lowest concentration that inhibits growth of the organism. On to `[H]/N=C(/N)N[C@H]1[C@H](O)[C@@H](O)[C@H](O[C@@H]2O[C@@H](C)[C@](O)(C=O)[C@H]2O[C@@H]2O[C@@H](CO)[C@H](O)[C@@H](O)[C@@H]2NC)[C@@H](N/C(N)=N\[H])[C@@H]1O` [streptomycin, reference compound], for which the MIC was 21.5 µM in the data set with S. aureus ATCC 25923, 21.5 µM (≈ 12.5 µg/mL) in the data set with E. coli ATCC 25922 and 21.5 µM in the data set with P. aeruginosa PAO1 [1].

Regarding azamulin [Compound 4], the Bioavailability entry in [2] is “poor bioavailability”.

Consider `CN[C@H](CC(C)C)C(=O)N[C@H]1C(=O)N[C@@H](CC(N)=O)C(=O)N[C@H]2C(=O)N[C@H]3C(=O)N[C@H](C(=O)N[C@H](C(=O)O)c4cc(O)cc(O)c4-c4cc3ccc4O)[C@H](O)c3ccc(c(Cl)c3)Oc3cc2cc(c3O[C@@H]2O[C@H](CO)[C@@H](O)[C@H](O)[C@H]2O[C@H]2C[C@](C)(N)[C@H](O)[C@H](C)O2)Oc2ccc(cc2Cl)[C@H]1O` [vancomycin, reference compound], for which the MIC in the data set on MRSA ATCC 43300 was found to be 0.7 µM.

For the compound polymyxin B, in the data set on P. aeruginosa PAO1 [3], the “Outer membrane perturbation (nitrocefin hydrolysis)” value is on record as “potent ability to perturb the outer membrane”.

Consider `O=C(N[C@H](CO)[C@H](O)c1ccc([N+](=O)[O-])cc1)C(Cl)Cl` [chloramphenicol, reference compound], for which the MIC in the data set on S. aureus ATCC 25923 is 1.5 to 3 µM.

With `C=C[C@]1(C)C[C@@H](OC(=O)CO)[C@]2(C)[C@H](C)CC[C@]3(CCC(=O)[C@H]32)[C@@H](C)[C@@H]1O` [Compound 1, pleuromutilin], the MIC with S. aureus ATCC 25923 was determined as 3.12 µM; against E. coli ATCC 25922, 400 µM (≈ 151 µg/mL); in the data set on P. aeruginosa PAO1 [1], 800 µM. Further, the “Antibacterial activity against Staphylococcus aureus” value in the data set on Staphylococcus aureus is on record as “bactericidal activity”. Also, the “Antibacterial activity against Mycobacterium smegmatis” value in the data set with Mycobacterium smegmatis is recorded as “moderate activity”. For the same compound, the “Antibacterial activity against Escherichia coli” value with Escherichia coli is “no effect”.

For `CC/C(=C(\c1ccccc1)c1ccc(OCCN(C)C)cc1)c1ccccc1` [tamoxifen, reference compound], in data set [4], the IC50 at 20 h is 24 µM.

In the case of `C[C@H]1c2cccc(O)c2C(=O)C2=C(O)[C@]3(O)C(=O)C(C(N)=O)=C(O)[C@@H](N(C)C)[C@@H]3[C@@H](O)[C@@H]21` [doxycycline], in the data set on P. aeruginosa ATCC 27853, the “MIC of antibiotic alone” value is 90 μM and 40 μg/mL.

As to `OC(Cn1cncn1)(Cn1cncn1)c1ccc(F)cc1F` [fluconazole, reference compound], the MIC with C. albicans ATCC 90028 was determined as 0.4 µM; in data set [5], 26 µM.

The values above are taken from publication PMC10673369, “Preliminary SAR of Novel Pleuromutilin–Polyamine Conjugates” (Microorganisms, 2023).
